The values that follow come from patent US9688638B2, “Opioid agonists and uses thereof” (priority 2013, dated 2017).

One may read the EC50 as the concentration giving half of the maximal effect. As a reminder, the Ki is a measure of affinity in units of concentration, obtained from inhibition or displacement.

Where two headings read alike, the source gives them in different places.

In one data set the target is MOR (Homo sapiens (Human), UniProt P35372). Nature of the data set: cAMP accumulation assay, forskolin-stimulated CHO-K1 cells stably expressing MOR. It counts as cell-based. The settings on record: inhibition of cAMP accumulation. On the procedure:
(§1) Inhibition of cAMP accumulation by select compounds was measured in forskolin-stimulated CHO-K1 cells stably expressing KOR. CHO-K1 cells stably expressing KOR were harvested using Invitrogen Cell Dissociation Buffer, and then centrifuged at 1200 rpm for five minutes. The supernatant was aspirated and cells were resuspended in assay buffer to a density of 4×10^5 cells/mL. 25 μL of cells were added into a white half-area 96 well plate. Fourteen point serial dilutions of test compounds were carried out in assay buffer (PBS with 0.5 mM IBMX). Ketazocine was used as a positive control for each assay. 12.5 μL of compound was added to the cells in duplicate for each test concentration. The cells were then stimulated with 12.5 μL forskolin at a final concentration 20 μM. Cells were incubated for 45 minutes in a 37° C., 5% CO2 water jacketed incubator. CisBio HTRF cAMP assay reagent was used for cAMP quantitation. Two hours after substrate addition, signal at 665/615 nm was measured using the Perkin Elmer Victor X4 HTRF reader. Data analysis was done using GraphPad Prism, sigmoidal dose-response (variable slope) curve fitting.
Using a similar approach, inhibition of cAMP accumulation by select compounds was also determined in forskolin-simulated CHO-K1 cells stably expressing MOR (wherein for this assay a density of 8×10^5 cells/mL was used and the positive control was DAMGO). Certain compounds of the present invention were tested as described above.
(Cyclic AMP is a second messenger, typically raised through Gs and lowered through Gi signalling.)

The subject of data set [1] is Swiss Albino or CD-1 male mice. The experiment in a line: Acetic acid writhing (AAW) analgesic assay. Type of data set: in vivo. As for the experimental part:
Approaches for evaluating analgesic activity of a compound of the present invention in vivo include a “writhing test.” Briefly, the compound to be tested is administered [by, for example, injection (e.g., subcutaneous injection)] to the mouse. Thereafter, a 0.5% acetic acid solution is administered (i.p.) to a mouse and the numbers of writhing responses are counted for twenty minutes. Antinociception is quantified as reduction in the number of writhes respective to vehicle.
An analgesic assay was used to determine whether a given compound can reduce and/or prevent visceral pain in mice. The assay utilizes Swiss Albino or CD-1 male mice (5-10 mice per group), each mouse being approximately 0.015-0.030 kg on the study day. Mice were treated according to standard protocols.
The animal was given an intraperitoneal (IP) injection of an irritant (acetic acid) that induces “writhing” which may include: contractions of the abdomen, twisting and turning of the trunk, arching of the back and the extension of the hindlimbs. Mice are given a single IP injection (0.1 mL/10 g bodyweight) of a 0.5% acetic acid solution. After the injection the animals were returned to their observation enclosure and their behavior was observed. Contractions were counted between 0 and 20 minutes after the injection. The animals were used once. In certain instances, the test articles were administered at multiple doses to determine a dose response curve.
Table 4 provides the results for certain compounds of the present invention that were administered subcutaneously. Table 5 provides the results for certain compounds of the present invention that were administered orally.
In general terms: Writhing tests count abdominal constrictions after an irritant is injected.

Data set [2] concerns the target recombinant human kappa (KOR) opioid receptor (Homo sapiens (Human), UniProt P41145). The experiment in a line: biochemical. Conditions: Cheng Prusoff correction; [3H]Diprenorphine 1 nM, CHO-K1 membranes; read-out: Kappa receptor binding Ki. It counts as binding.
For another data set, the system named is Male Swiss Albino mice. The experiment in a line: Locomotor activity. Type of data set: in vivo. The settings on record: oral, 30 min pre-dose, 20 min observation. On the procedure: The locomotor activity (LMA) model may be conducted to measure changes in activity following test article administration, which may be used to assess the CNS effects of the drug. In brief, at a predetermined time post-dose, rats are placed into observation chambers which are equipped with infrared photocells that can sense motion in the x, y, and z planes. Activity is measured as the number of photobeam breaks in a given plane (horizontal or vertical) or total distance traveled.
Male Swiss Albino mice were treated orally with vehicle (0.5% HPMC+0.1% Tween80), ketazocine, Compound 12 (0.3, 3 and 30 mg/kg) or Compound 20 (0.3, 3 and 30 mg/kg) thirty minutes prior to placement in the locomotor activity chamber. Total distance traveled was measured over the twenty minute observation time following placement in the locomotor activity chamber. Data are normalized relative to percent distance traveled in the vehicle group. The efficacy of Compound 12 (reported as percent distance traveled in comparison to vehicle) was 88.85%, 83.74% and 0.08% at 0.3, 3 and 30 mg/kg dosages, respectively, while the locomotor activity of Compound 20 (reported as percent distance traveled in comparison to vehicle) was 100%, 88% and 0.03% at 0.3, 3 and 30 mg/kg dosages, respectively.

Data set [3] has as its target recombinant human mu (MOR) opioid receptor (Homo sapiens (Human), UniProt P35372). Nature of the data set: Radioligand competition binding assay, mu opioid receptor. The settings on record: [3H]Naloxone 4 nM, CHO-K1 membranes. On the procedure: The binding affinities of certain compounds of the present invention were evaluated using radioligand binding assays in membranes prepared from CHO-K1 cells expressing recombinant human kappa (KOR) or mu (MOR) opioid receptors.
Competition binding experiments were conducted by incubating membrane protein to equilibrium in triplicate in the presence of a fixed concentration of radioligand and increasing concentrations of test compound for evaluation of binding to KOR or single concentration (10 μM) of test compound for evaluation of binding to MOR in 101 μL final volume. The radioligands used were specific for each receptor type, and the assay conditions are described in Table 1. Following incubations, the membranes were rapidly filtered through GF/B filter plate (presoaked with 0.5% polyethyleneimine), washed five times with cold 50 mM Tris-HCl, pH 7.5, and the bound radioactivity was then measured by liquid scintillation counting. Non-specific binding was measured in the presence of excess ligand; this value was subtracted from the total binding to yield the specific binding at each test concentration.
Ki (affinity of test compound) was obtained using the Cheng Prusoff correction using experimental Kd (affinity of radioligand) values that were previously determined under these assay conditions. For MOR binding, compounds were tested at one concentration, 10 μM, to evaluate its ability to inhibit specific radioligand binding. The values are expressed as percent inhibition of specific binding and greater than 50% inhibition of binding was considered to be significant.
With respect to determining MOR binding, an approach similar to one used for KOR binding was used.

The target of the next data set is KOR (Homo sapiens (Human), UniProt P41145). Nature of the data set: cAMP accumulation assay, forskolin-stimulated CHO-K1 cells stably expressing KOR. Type of data set: cell-based. Conditions: inhibition of cAMP accumulation, forskolin 20 μM; read-out: EC50 cAMP (nM)-KOR. As for the experimental part: as §1

Regarding `C[C@H]1[C@H]2C(=O)c3ccc(Nc4ccc(NCCOCCOCCOCCOCCOC(F)(F)F)cc4)cc3[C@]1(C)CCN2CC1CC1` [Compound 20, (2S,6R,11R)-3-(cyclopropylmethyl)-6,11-dimethyl-8-((4-((1,1,1-trifluoro-2,5,8,11,14-pentaoxahexadecan-16-yl)amino)phenyl)amino)-3,4,5,6-tetrahydro-2,6-methanobenzo[d]azocin-1(2H)-one], the EC50 at MOR is 128 nM; at KOR, 6.1 nM. Also, the inhibition in vivo at 0.3 mg/kg in data set [1] (Mus musculus, po, 20 min, oral, 0.3 mg/kg, read-out: AAW % Efficacy) was 39.1%. In addition, in data set [1] (Mus musculus, po, 20 min, oral, 3 mg/kg, read-out: AAW % Efficacy), the inhibition in vivo at 3 mg/kg amounted to 79.5%. In addition, in data set [1] (Mus musculus, po, 20 min, oral, 30 mg/kg, read-out: AAW % Efficacy), the inhibition in vivo at 30 mg/kg was determined as 100%. Moreover, the inhibition in vivo at 10 mg/kg in data set [1] (Mus musculus, sc, 20 min, subcutaneous, read-out: AAW % Efficacy) stood at 88.1%. Further, the Ki was found to be 0.00286 µM in data set [2] and 0.0443 µM in data set [3]. Also, the “percent distance traveled in comparison to vehicle” value came to 100% in the data set on Male Swiss Albino mice (0.3 mg/kg), 88% with Male Swiss Albino mice (3 mg/kg) and 0.03% in the data set on Male Swiss Albino mice (30 mg/kg).

`COCCOCCOCCOCCOCCNc1ccc(Nc2ccc3c(c2)[C@]2(C)CCN(CC4CC4)[C@H](C3=O)[C@@H]2C)cc1` [Compound 12, (2S,6R,11R)-8-((4-(2,5,8,11,14-pentaoxahexadecan-16-ylamino)phenyl)amino)-3-(cyclopropylmethyl)-6,11-dimethyl-3,4,5,6-tetrahydro-2,6-methanobenzo[d]azocin-1(2H)-one]: the figures for the EC50 at MOR and on KOR were 189 nM and 7 nM, respectively. Moreover, the inhibition in vivo at 0.1 mg/kg in data set [1] (Mus musculus, po, 20 min, oral, 0.1 mg/kg, read-out: AAW % Efficacy) was found to be 22.5%. For the same molecule, the inhibition in vivo at 1 mg/kg in data set [1] (Mus musculus, po, 20 min, oral, 1 mg/kg, read-out: AAW % Efficacy) turned out to be 56.9%. Besides, the inhibition in vivo at 10 mg/kg in data set [1] (Mus musculus, po, 20 min, oral, read-out: AAW % Efficacy) was 97.2%. Besides, the “AAW % Efficacy” value in data set [1] (subcutaneous, 3 mg/kg) turned out to be 68.6%; in data set [1] (subcutaneous, 30 mg/kg), 100.0%. Further, in data set [1] (subcutaneous, 3 mg/kg, outlier data removed), the “AAW percent efficacy, outlier data removed” value is on record as 65.09. Further, the Ki in data set [2] amounted to 0.005 µM; in data set [3], 0.0585 µM. Also, the “percent distance traveled in comparison to vehicle” value in the data set with Male Swiss Albino mice (0.3 mg/kg) turned out to be 88.85%; with Male Swiss Albino mice (3 mg/kg), 83.74%; with Male Swiss Albino mice (30 mg/kg) it was 0.08%.
